From patent US20050085441A1, “Use of soluble monovalent oligosaccharides as inhibitors of HIV-1 fusion and replication” (priority 2002, published 2005)

Key:
[1] = test system: HIV-1 laboratory strain NL4.3; experiment: Syncytia formation in MT-2 cells infected with HIV-1 NL4.3; format: cell-based
[2] = test system: HIV-1 laboratory strain NL4.3; experiment: Viral p24 antigen release, HIV-1 NL4.3 in MT-2 cells; format: cell-based; settings: for reduction of production of p24: day 7 post-infection; for effect on release of antigen p24: 0.5-50.0 mM tested, concentration not given
[3] = test system: HIV-1 clinical isolate 1936; experiment: Replication of T-tropic clinical isolate 1936 in MT-2 cells (p24 release); format: cell-based
HIV-2 isolate CBL23 = experiment: Replication of HIV-2 clinical isolate CBL23 in MT-2 cells; format: cell-based; settings: single oligosaccharide
Description: The effect of the oligosaccharides was also tested on the replication of CLB23, a T -tropic clinical isolate of HIV-2.

[4] = test system: HIV-1 T-tropic envelope protein of HXB2; format: cell-based; settings: virions with HIV HXB2 envelope protein, MT-2 cells
[5] = test system: vesicular stomatis virus (VSV) G protein; format: cell-based, vesicular stomatitis virus
HIV-1 (strain NL4.3) = experiment: HIV-1 replication in vivo in NOD-SCID huPBL mice (p24, viral load in peritoneal wash)
[6] = test system: HIV-1 clinical isolate ME46; experiment: Replication of T-tropic clinical isolate ME46 in MT-2 cells (p24 release)
Description: MT-2 cells were infected as described above, and the course of infection was followed by the release of p24.

[7] = test system: HIV-1 M-tropic strain Ba-L; experiment: Replication of M-tropic strain Ba-L in human peripheral blood monocytes (p24 release); settings: 0.5, 5 and 25 mM, MOI 0.001

Row | SMILES | formation of syncytia (number and size) ([1]; 25 mM, MT-2 cells, NL4.3) | size of syncytia (number of nuclei) ([1]; concentrations lower than 25 mM) | release of antigen p24 ([2]; 5 mM or lower) | reduction of production of p24 ([2]; 25 mM globotriose) [fold] | release of antigen p24 ([2]; 25 mM, effect maximum at days 3 and 7, recovered at day 10 post-infection) | inhibition of replication of isolate 1936 ([3]; 5 mM and above) | inhibition of replication of HIV-2 isolate CBL23 (HIV-2 isolate CBL23) | expression of the luciferase reporter [4] | expression of the luciferase reporter [5] | HIV-1 replication (p24 and viral load) (HIV-1 (strain NL4.3); globotriose 15 mg/mouse i.p. single dose, days 2 and 6 post infection) | HIV-1 replication (p24 and viral load) (HIV-1 (strain NL4.3); repeat experiment, single dose at beginning of infection, day 6) | inhibition of replication of isolate ME46 ([6]; 5 mM and above) | inhibition of replication of strain Ba-L (p24 release) [7] | effect on release of antigen p24 [2] | effect on formation of syncytia ([1]; 0.5-50.0 mM tested, concentration not given) | reduction of production of p24 ([2]; 5 mM lactose) [fold] | effect on replication of isolate 1936 ([3]; 25 mM) | effect on replication of isolate ME46 ([6]; 15 mM) | inhibition of replication of isolate ME46 ([6]; 25 mM)
1 | OC[C@H]1O[C@H](O[C@@H]2[C@H](O)[C@@H](O)[C@H](O[C@H]3[C@H](O)[C@@H](O)C(O)O[C@@H]3CO)O[C@@H]2CO)[C@H](O)[C@@H](O)[C@H]1O (stereo partly drawn) [globotriose, galactose α1-4galactose β1-4glucose] | completely inhibited | decreased | not at 5 mM or lower | 5 | inhibited | more than ten-fold | much weaker than for the HIV-1 isolates | inhibited | no effect was observed except for the highest concentration | strongly inhibited | diminished replication | more than ten-fold | did not inhibit | – | – | – | – | – | –
2 | CC(=O)N[C@H]1[C@H](O[C@H]2[C@@H](O)[C@@H](CO)O[C@@H](O[C@H]3[C@H](O)[C@@H](O)C(O)O[C@@H]3CO)[C@@H]2O)O[C@H](CO)[C@@H](O)[C@@H]1O[C@@H]1O[C@H](CO)[C@H](O)[C@H](O)[C@H]1O (stereo partly shown) [lacto-N-tetraose, reference compound] | – | – | – | – | – | – | – | – | – | – | – | – | ineffective | ineffective | – | – | – | – | –
3 | OC[C@H]1O[C@@H](O[C@H]2[C@H](O)[C@@H](O)[C@H](O)O[C@@H]2CO)[C@H](O)[C@@H](O)[C@H]1O [lactose, o-β-D-galactopyranosyl-(1-4)-β-D-glucopyranose] | – | – | – | – | – | – | basically non-effective | inhibited | no effect was observed | – | – | – | ineffective | less potent than globotriose | weaker than that exhibited by globotriose | 2 | practically did not affect | minor effect | ten-fold
